Here are results for two compounds from patent publication US20220202899A1, “COMPOSITION FOR PREVENTION OR TREATMENT OF HAIR LOSS INCLUDING HAPLN1” (HAPLNSCIENCE INC., priority 2019, published 2022).

In experiment [1] the test system is TβRII. The experiment is described as follows: TβRII protein in human hair germinal matrix cells deficient in endogenous HA (4-MU). It is filed as cell-based. To be noted: 4-MU-treated cells; HAPLN1 25 ng/mL; TGF-β2 2 ng/mL. The method, then:
(§1) 4-MU (4-methylumbelliferone) is an inhibitor of HA-producing hyaluronan synthase 2 (HAS2), which produces HA. In order to confirm the effect of HA produced in cells, HA production in cells was inhibited using 4-MU.
(§2) The human hair germinal matrix cells, in which the endogenous HA was inhibited by treating 4-MU, were dispensed into a poly-D-lysine 6-well plate at a concentration of 5.0×10^4 per well and cultured for 24 hours. After 24 hours, the medium was removed and replaced with a new serum-free medium. HAPLN1 was treated with 25 ng/mL, and after 1 hour, TGF-β2 (2 ng/mL) was treated. After 23 hours, cells were collected, a lysis buffer (25 mM Tris-HCl, 1 mM EDTA, 0.1% Triton-X100, phosphatase inhibitor, and protease inhibitor) was added, and all the cells were broken through sonication. HAS2 and TβRII in the sample were measured using Western blotting. The optical density of each of HAS2 and TβRII was compared to that of GAPDH using a densitometer.

Another experiment relates to HAS2. The experiment is described as follows: HAS2 protein in human hair germinal matrix cells deficient in endogenous HA (4-MU). It is filed as cell-based. To be noted: 4-MU-treated cells; HAPLN1 25 ng/mL; TGF-β2 2 ng/mL. The method, then:
as §1, §2

Experiment [2] deals with TβRII. Briefly: TβRII protein after HAPLN1 and/or HA in CD44-deficient human hair germinal matrix cells. It is filed as cell-based. To be noted: after CD44 siRNA; HAPLN1 25 ng/mL and/or HA 25 μg/mL; TGF-β2 2 ng/mL, 23 hours. The method, then: (§3) The human hair germinal matrix cells, which were made to be deficient in CD44 by using CD44 siRNA, were dispensed into a poly-D-lysine 6-well plate at a concentration of 5.0×10^4 per well and cultured for 24 hours. After 24 hours, the medium was removed and replaced with a low-serum medium. CD44 siRNA and scrambled siRNA were added at a concentration of 25 pmol per well and incubated for 24 hours. After the siRNA and the medium were all removed, the medium was replaced with a serum-free medium having HAPLN1 (25 ng/mL) or HA (25 μg/mL) added thereto, and cultured for 1 hour. TGF-β2 (2 ng/mL) was treated and incubated for 23 hours. After collecting cells, a lysis buffer (25 mM Tris-HCl, 1 mM EDTA, 0.1% Triton-X100, phosphatase inhibitor, and protease inhibitor) was added, and all the cells were broken through sonication. TβRII in the sample was measured using Western blotting. The optical density of TβRII was compared to that of GAPDH using a densitometer.

For experiment [3], the system named is human hair germinal matrix cells. The experiment is described as follows: Cell proliferation of human hair germinal matrix cells, CCK-8 (Example 10). It is filed as cell-based. The conditions noted are these: HAPLN1 25 ng/mL and/or HA 25 μg/mL; TGF-β2 2 ng/mL, 23 hours. The method, then: Human hair germinal matrix cells were dispensed into a poly-D-lysine 96-well plate at a concentration of 2.0×10^4 per well and cultured for 24 hours. After 24 hours, the medium was removed and replaced with a new serum-free medium. HAPLN1 was treated with 25 ng/mL and HA with 25 μg/mL, incubated for 1 hour, and then stimulated with TGF-β2 (2 ng/mL) for 23 hours. CCK-8 (Enzo Biochem, NY, USA) was treated and incubated at 37° C. for 1 hour.

A further experiment has as its system p-c-Raf. The experiment is described as follows: p-c-Raf in human hair germinal matrix cells stimulated with TGF-β2 (Western blotting). The conditions noted are these: HAPLN1 25 ng/mL and/or HA 25 μg/mL; TGF-β2 2 ng/mL, 1 hour. It is filed as cell-based. The method, then:
(§4) Human hair germinal matrix cells were dispensed into a poly-D-lysine 6-well plate at a concentration of 5.0×10^4 per well and cultured for 24 hours. After 24 hours, the medium was removed and replaced with a new serum-free medium. HAPLN1 was treated with 25 ng/mL and HA with 25 μg/mL, incubated for 23 hours, and then stimulated with TGF-β2 (2 ng/mL) for 1 hour. After collecting cells, a lysis buffer (25 mM Tris-HCl, 1 mM EDTA, 0.1% Triton-X100, phosphatase inhibitor, and protease inhibitor) was added, and all the cells were broken through sonication. p-ERK1/2, p-Smad2, p-MEK1/2, and p-c-Raf in the sample were measured using Western blotting. Optical densities of p-ERK1/2, p-Smad2, p-MEK1/2, and p-c-Raf were compared to those of ERK1/2, Smad2/3, MEK1, and c-Raf using a densitometer. Here, ERK1/2, Smad2/3, MEK1, and c-Raf were used as loading controls.
For orientation: Immunoblotting shows a protein as a band on a membrane.

Experiment [4] deals with TβRII. Briefly: TβRII protein after exogenous HAPLN1 and/or HA in endogenous HAPLN1-deficient human hair germinal matrix cells. It is filed as cell-based. The conditions noted are these: after HAPLN1 siRNA; HAPLN1 25 ng/mL and/or HA 25 μg/mL; TGF-β2 2 ng/mL, 23 hours. The method, then:
as §3, with “cells” for “cells, which were made to be deficient in CD44 by using CD44 siRNA,”, “HAPLN1” for “CD44”

The next experiment deals with p-Smad2. Briefly: p-Smad2 in human hair germinal matrix cells stimulated with TGF-β2 (Western blotting). It is filed as cell-based. To be noted: HAPLN1 25 ng/mL and/or HA 25 μg/mL; TGF-β2 2 ng/mL, 1 hour. The method, then: as §4
In experiment [5] the test system is TβRII. The experiment is described as follows: TβRII protein in human hair germinal matrix cells treated with HAPLN1 and/or HA, then TGF-β2 (Western blotting). It is filed as cell-based. The conditions noted are these: HAPLN1 25 ng/mL or HA 25 μg/mL alone; TGF-β2 2 ng/mL after 1 hour; 23 hours. The method, then: as §2, with “Human” for “The human”, “cells” for “cells, in which the endogenous HA was inhibited by treating 4-MU,”, “ng/mL, HA was treated with 25 μg/mL,” for “ng/mL,”, “TβRI” for “HAS2”, “of” for “of each of HAS2 and”

The subject of a further experiment is cell membrane TβRII. The experiment is described as follows: Cell membrane TβRII protein (biotin labelling, immunoprecipitation, Western blotting). It is filed as cell-based, human. To be noted: HAPLN1 25 ng/mL and/or HA 25 μg/mL; TGF-β2 2 ng/mL. The method, then:
All proteins present in the cell membrane were labeled with biotin, and immunoprecipitation was performed with a biotin antibody to isolate only the cell membrane protein. In order to confirm changes in the ratio of TβRII among cell membrane proteins, Western blotting was performed. The specific experimental method will now be described.
Human hair germinal matrix cells were dispensed into a poly-D-lysine 100 mm dish at a concentration of 2.7×10^6 and cultured for 24 hours. After 24 hours, the medium was removed and replaced with a new serum-free medium. HAPLN1 was treated with 25 ng/mL and HA with 25 μg/mL, and after 1 hour, TGF-β2 (2 ng/mL) was treated. To label biotin after 23 hours, EZ-Link™ Sulfo-NHS-LC-Biotin (Thermo Fisher Scientific, MA, USA) was treated at a concentration of 250 μg/mL and incubated at 4° C. for 1 hour. The biotin labeling reaction was terminated by treatment with 50 mM Tris-HCl. After collecting cells, a lysis buffer (50 mM Tris-HCl, 150 mM NaCl, 1% NP-40, phosphatase inhibitor, and protease inhibitor) was added, and all the cells were broken through sonication. Cell membrane proteins were isolated by performing immunoprecipitation experiments using anti-biotin antibodies. TβRII in the isolated membrane protein sample was measured using Western blotting. The optical density of TβRII was compared to that of GAPDH using a densitometer.

The next experiment has as its system p-MEK1/2. Briefly: p-MEK1/2 in human hair germinal matrix cells stimulated with TGF-β2 (Western blotting). It is filed as cell-based. To be noted: HAPLN1 25 ng/mL and/or HA 25 μg/mL; TGF-β2 2 ng/mL, 1 hour. The method, then:
as §4

For a further experiment, the system named is p-ERK1/2. Briefly: p-ERK1/2 in human hair germinal matrix cells stimulated with TGF-β2 (Western blotting). It is filed as cell-based. The conditions noted are these: HAPLN1 25 ng/mL and/or HA 25 μg/mL, 23 hours; TGF-β2 2 ng/mL, 1 hour. The method, then: as §4

Regarding `Cc1cc(=O)oc2cc(O)ccc12` [4-MU, 4-methylumbelliferone, reference compound], the TβRII level result with TβRII [1] is recorded as “decreased”. Also, in the experiment on HAS2, the HAS2 level entry is “decreased”.
Turning to “Hyaluronic acid [HA, reference compound]”, the “TβRII protein in CD44-deficient cells” value with TβRII [2] is listed as “not confirmed that TβRII was recovered”. Moreover, in [3], the “cell proliferation (absorbance at 450 nm) compared to the control group” value is reported as “promoted”. Besides, the “c-Raf activity (p-c-Raf compared to c-Raf)” value in the experiment on p-c-Raf is “increased activities”. In addition, the “TβRII protein in endogenous HAPLN1-deficient cells” value with TβRII [4] is listed as “recovered”. Also, in the experiment on p-Smad2, the “phosphorylation of Smad2” value was “no change”. Moreover, in the experiment on TβRII [5], the “TβRII protein (optical density compared to GAPDH)” value is “increased”. Also, in the experiment with cell membrane TβRII, the “cell membrane TβRII protein concentration” value is recorded as “increased”. Further, in the experiment on p-MEK1/2, the “MEK1/2 activity (p-MEK1/2 compared to MEK1)” value was “increased activities”. For the same compound, the “ERK1/2 signaling (p-ERK1/2 compared to ERK1/2)” value in the experiment with p-ERK1/2 is reported as “activated”.
